Assay results taken from patent US9024005B2, “Nucleic acid complexes” (priority 2010, dated 2015).
Like-named read-outs stand apart in the source and are kept apart here. {Fluorescein} = fluorescein label

Experiments:
[1] = Weissig et al. 2001 S. T. P. Pharma Sci. 11: 91-96, Table I; cited from earlier work
[2] = Vesicle size distribution of hairpin TFD complexes (Malvern Nanosizer); type: physicochemical; conditions: TFD complexes containing hairpin TFD SA SIG and the delivery compound
Protocol: To prepare delivery complexes, 10 mg of compound was suspend in 12.5 ml of 5 mM Hepes pH7.5 (final concentration 0.8 mg/ml) and dissolved by sonication (30×30 s on, 30 s off, on ice at 10μ). Absorbance of the resulting solution was measured at 327 nm to establish an accurate concentration. 12.5 μl delivery compound was mixed with 40 μl 10 μM TFD and 447.5 μl 5 mM Hepes (pH7.5) and sonicated in an ice bath using an MSE 150 Soniprep attached with a microprobe. Thirty cycles of sonication were performed with 30 s on (with 50% power, approximately 10μ) and 30 s off.
The size distributions of the formed vesicles were measured using a Malvern Nanosizer using standard methodology and are set out in Table 3 below: […]

TFD = assay: SYBR Green-DNA binding assay: binding of bolasomes to TFDs; conditions: at the concentrations used for sC7 bolasomes; 2 μg TFD/ml
Protocol: To determine the proportion of TFDs being bound by the vesicles, a SYBR-green binding assay was used. TFD complexes were formed as described above in Hepes buffer with the adaptation that the buffer contained 5 μl of a 1 in 10 dilution of SYBR Green I dye (Invitrogen, 10,000× stock prepared in DMSO). Fluorescence was measured (λEX 497 nm, λEM 520 nm) to determine how much bolasome needed to be added to quench the binding of SYBR Green to the TFDs.
SYBR-Green I dye binds specifically to double-stranded DNA and, as it does, gives a strong fluorescent signal. By measuring the change in signal in the presence of different concentrations and types of bolasome, it was possible to calculate the minimum amount of bolasome needed to quench the SYBR-Green binding, due to the dye being excluded by the bolasomes. This was achieved by extrapolation from the linear portion of a titration curve that plotted amount of bolasome added to fluorescent signal. […] At these concentrations no quenching was seen by the monomeric C7.

[3] = Weissig et al. (2006) J. Liposome Res. 16: 249-264, cited from earlier work
MRSA strain, EMRSA-15 = assay: Fluorescence microscopy of uptake of labelled oligonucleotide; type: cell-based, S. aureus; conditions: delivered in Buforin II-derivatised complexes formed with Compound 7; overnight growth
Protocol: Derivatised TFD complexes were formed as described, with the exception that the TFD was substituted with a fluorescently labelled oligonucleotide, Tef, that contained a fluorescein dye at the 5′ end. The sequence of the oligonucleotide was:
The derivatised complexes are added to 200 μl of LB broth inoculated with the MRSA strain, EMRSA-15, and grown overnight with shaking at 37° C. The following morning, cells were harvested by centrifugation and washed four times in an equal volume of PBS. A drop of the bacterial suspension was placed on a microscope slide and air dried. Cells were then heat-fixed by passing the slide through a Bunsen flame. The slide was then flooded with a solution of Loeffler's methylene blue (5 mg/ml methylene blue in 69:30:1 (v/v) solution of water:methanol: 1% (w/v) KOH) and allowed to stand for 1 min, after which the excess solution was washed off with water and the cells visualised using a Cairn CCD Fluorescence Microscope.

EMRSA-15 = assay: Growth assay, TFDs delivered by antibacterial peptides; type: cell-based, S. aureus; conditions: for bacterial growth of EMRSA-15, agent alone: TFD alone or Gramicidin alone; for bacterial growth of EMRSA-15, agent alone / bacterial growth of EMRSA-15, TFD with Gramicidin: LB media; for bacterial growth of EMRSA-15, TFD with Gramicidin: 1 μg DB-TFD with 150 ng/ul of Gramicidin; for growth of EMRSA-15, TFD mixed with Buforin II: 96 well plate in vitro assay
Protocol: The following antibacterial peptides were assayed for their ability to deliver TFDs to bacterial cells: Gramicidin, Polymyxin nonapeptide (both purchased from Sigma Aldrich) and Buforin II (Park et al. (2000) Proc. Natl. Acad. Sci. USA 97: 8245-8250). Typically 1 μg of the Sig DB-TFDs and SigScr DB-TFD as described in Example 1 were mixed with between 0.2 and 5 μg of Gramicidin in a total volume of 5 μl 50 mM NaCl. Of this, 1 μl was added to 200 μl of LB broth inoculated with a 1/100 dilution of a glycerol stock of EMRSA-15 at an original density of 0.3 OD (Absorbance at 600 nm) and aliquoted into a well of a 96 well plate. Experiments were performed in triplicate. The plates were incubated at 37° C. with shaking and absorbance readings (at […]) were taken using a plate reader.

[4] = system: Staphylococcus aureus EMRSA 16; assay: Tissue burden study, mouse sepsis model; type: in vivo; conditions: Dwass-Steel-Chritchlow-Fligner, all pairwise comparisons
Protocol: Animals were treated in groups of since mice per treatment group, therefore forty eight animals were used in total for the study. Two 10 ml cultures of Staphylococcus aureus EMRSA 16 were prepared and placed on orbital shaker (220 rpm) overnight at 37° C. The following day, the Staphylococcus aureus EMRSA 16 cultures were removed from shaker, pelleted and washed twice before being resuspended in saline to an OD of 0.132 (1.5×10^8 cfu/ml). This stock solution of Staphylococcus aureus EMRSA 16 was then further diluted 1:1.5 in saline (1×10^8 cfu/ml) i.e. 2.0×10^7 bacteria per mouse.
All forty eight mice were then infected with 0.2 ml of the 1.0×10^8/ml suspension by intravenous injection into mouse tail vein. The number of Staphylococcus aureus EMRSA 16 bacteria per ml in the remainder of the suspensions after inoculation was also counted to confirm infection load.
Mice were treated 1, 9 and 17 hours post infection with either compound or vehicle, though vancomycin was only administered after 1 h.
After 25 hours post infection, all animals were weighed and then euthanised. […] Organ homogenates were quantitatively cultured onto CLED agar and incubated at 37° C. for up to 3 days and colonies counted. The data from the culture burdens was analysed by the Kruskal-Wallis test using Stats Direct. […]

Nc1c2c([n+](CCCCCCCCCC[n+]3c4c(c(N)c5ccccc53)CCCC4)c3ccccc13)CCCC2.[Cl-].[Cl-] [Compound 7, 10,10′-(decane-1,10-diyl)bis(9-amino-1,2,3,4-tetrahydroacridinium)dichloride]
published size distribution of the vesicles [1]: 169 nm | Vesicle size distribution (nm) [2]: 139 +/− 35 nm | quenching of SYBR-Green binding (TFD): no quenching | in vitro toxicity compared to dequalinium [3]: less in vitro toxicity than dequalinium | in vitro toxicity compared to dequalinium ([3]; listed as Compound 7 analogue): lower toxicity in vitro compared to dequalinium

Tef: fluorescein 5′-labelled oligonucleotide, SEQ ID NO: 52, substitute for the TFD (AGGCGGCCGCGAATTCACTAGTGA; DNA, 5' {Fluorescein}, backbone not given here; listed as Staphylococcus aureus)
uptake of labelled oligonucleotide into bacteria (fluorescence view) (MRSA strain, EMRSA-15): had been internalised

Nc1c2c([n+](CCCCCCCCCCCC[n+]3c4c(c(N)c5ccccc53)CCCC4)c3ccccc13)CCCC2.[Cl-].[Cl-] [Compound 7_12, 10,10′-(dodecane-1,12-diyl)bis(9-amino-1,2,3,4-tetrahydroacridinium)dichloride]
Vesicle size distribution (nm) [2]: 117 +/− 32 nm

Gramicidin [reference compound]
bacterial growth of EMRSA-15, agent alone (EMRSA-15): grew as well as the untreated control

Cc1cc(N)c2ccccc2[n+]1CCCCCCCCCC[n+]1c(C)cc(N)c2ccccc21 [Dequalinium, reference compound]
Vesicle size distribution (nm) [2]: 75-820 nm

Sig TFD: transcription factor decoy with S. aureus Sig binding site (SEQ ID NO:9), given alone at 1 nM (TTATTATATACCCATCGAAATAATTTCTAATCTTC; DNA, backbone not given here; further chemistry not fully specified; listed as Staphylococcus aureus)
Kruskal-Wallis pairwise comparison of kidney burden vs Vancomycin [4]: <0.0001 | Kruskal-Wallis pairwise comparison of kidney burden vs Vehicle [4]: 0.9203

B1: scrambled version of the DB-TFD: dumbbell TFD with scrambled Sig binding site, SEQ ID NO: 43 and 44 (nucleic acid)
chain 1: CTTGGTTTTTCCAAGTAGAAAGAAGATTTAGGGCGATTTTATAATATAT
chain 2: CCGTCTTTTTGACGGATATATTATAAAATCGCCCTAAATCTTCTTTCTA
modifications: DNA, backbone not given here; dumbbell decoy with hairpin loops
bacterial growth of EMRSA-15, TFD with Gramicidin (EMRSA-15): grew as well as the untreated control | growth of EMRSA-15, TFD mixed with Buforin II (EMRSA-15): no discernable effect on growth

B2: Sig DB-TFD: dumbbell TFD with recognition site for S. aureus alternative sigma protein, SEQ ID NO: 30 and 31 (nucleic acid)
chain 1: CTTGGTTTTTCCAAGGAAGATTAGAAATTATTTCGATGGGTATATAATA
chain 2: CCGTCTTTTTGACGGTATTATATACCCATCGAAATAATTTCTAATCTTC
modifications: DNA, backbone not given here; phosphorylated oligos forming dumbbell with hairpin loops, further chemistry not fully specified
bacterial growth of EMRSA-15, TFD with Gramicidin (EMRSA-15): no bacterial growth | growth of EMRSA-15, TFD mixed with Buforin II (EMRSA-15): prevented growth | bacterial growth of EMRSA-15, agent alone (EMRSA-15): grew as well as the untreated control
